Experimental data published in patent US20060286670A1, “Transplant acceptance inducing cells of monocytic origin and their preparation and use” (BLASTICON BIOTECHNOLOGISCHE FORSCHUNG GMBH, priority 2002, published 2006).

System: PHA-stimulated lymphocytes
Experiment: Mixed lymphocyte culture of PHA-stimulated lymphocytes and TAIC, 3[H]-thymidine incorporation
Assay type: cell-based, human
Conditions: 2 μmol 1-MT
Description: In order to clarify, whether the inhibitor of the enzyme indolamine-2,3-dioxygenase (IDO) 1-methyltryptophane (1-MT) influences the suppressor function of the TAIC generated in the “Mo” and “Mo+Ly” set ups (see Example 11), a variety of mixed lymphocyte cultures (MLC) with PHA (phytohaemagglutinine) stimulated T-cells in the presence and in the absence of 1-MT were established.
In these mixed lymphocyte cultures 50.000 lymphocytes with 2 μg […] were transferred into the wells of a 96-well-plate, followed by a proliferation period over 144 hours (indicated as “PhaLy”). Lymphocytes only cultivated in medium without addition of PHA were run as a further control (indicated as “Ly”).
In order to determine the proliferation of PHA-stimulated lymphocytes in the different co-cultures, the following 4 set ups were run and examined:
In this arrangement, the amount of the radio activity determined is a measure for the amount of labeled thymidine incorporated into the DNA, and therefore a measure for the proliferation rate of the lymphocytes. The values reported in FIG. 8 correspond to mean values from triple determinations of 3 experiments each with indication of the standard deviation.

Question: For Cn1cc(C[C@H](N)C(=O)O)c2ccccc21 [1-MT, 1-methyltryptophane], which “influence on the suppressor function of the TAIC” value is on record?
Answer: increases the suppressor function of the TAIC synergistically
